Each structure is given as a SMILES string.

The subject of the first test is Cucumis sativus. Kind of test: Phytotoxic activity against Cucumis sativus (cucumber) assessed as weight of aerial parts at 5.0 x 10^-4 mol/l measured 15 days after seed sowing under greenhouse trials (reference value: 47.0 mg). Format: functional.
Details: not given
For the compound `CCC12OC(C3OOC1O3)C1CCCCC2C1=O` (mixture of isomers), the Activity came out at 24.4 mg.

Turning to `CC[C@@H]1C(=O)[C@@H](CC)[C@@]23CC(C)CCC2=C(C)[C@H]1O3` (some centres undefined), the Activity was found to be 30.7 mg.

In the next test the test system is Ipomoea grandifolia. Kind of test: Phytotoxic activity against Ipomoea grandifolia assessed as aerial part growth inhibition at 5.0 x 10^-4 mol/l measured 21 days after seed sowing under greenhouse trials (reference value: 0.0%). The conditions noted are these: 504 h. Type of test: functional.
As for `CCC12OC(C3OOC1O3)C1CCCCC2C1=O` (mixture of isomers), the inhibition at 500 µM is 47.7%.

As for `CC[C@@H]1C(=O)[C@@H](CC)[C@@]23CC(C)CCC2=C(C)[C@H]1O3` (some centres undefined), the inhibition at 500 µM was 61.8%.

Another test deals with Ipomoea grandifolia. Kind of test: Phytotoxic activity against Ipomoea grandifolia assessed as root growth inhibition at 5.0 x 10^-4 mol/l measured 21 days after seed sowing under greenhouse trials (reference value: 0.0%). Type of test: functional. Conditions: 504 h.
For `CCC12OC(C3OOC1O3)C1CCCCC2C1=O` (mixture of isomers), the inhibition at 500 µM was determined as 43%.

For the compound `CC[C@@H]1C(=O)[C@@H](CC)[C@@]23CC(C)CCC2=C(C)[C@H]1O3` (some centres undefined), the inhibition at 500 µM turned out to be 85.3%.

Another test concerns Sorghum bicolor. Kind of test: Phytotoxic activity against Sorghum bicolor seedlings assessed as radicle length at 5x10'-4 mol/l at 28 +/-1 degC after 48 hr by acid-washed sand based radicle elongation assay (reference value: 5.1 cm). Format: functional.
Details: not given
`CCC12OC(C3OOC1O3)C1CCCCC2C1=O` (mixture of isomers): the Activity is listed as 2.4 cm.

On to `CC[C@@H]1C(=O)[C@@H](CC)[C@@]23CC(C)CCC2=C(C)[C@H]1O3` (some centres undefined), for which the Activity came to 1.7 cm.

The subject of a further test is Sorghum bicolor. Put plainly: Phytotoxic activity against Sorghum bicolor assessed as aerial part growth inhibition at 5.0 x 10^-4 mol/l measured 15 days after seed sowing under greenhouse trials (reference value: 0.0%). Conditions: 360 h. Format: functional.
Regarding `CCC12OC(C3OOC1O3)C1CCCCC2C1=O` (mixture of isomers), the inhibition at 500 µM was found to be 45.4%.

For `CC[C@@H]1C(=O)[C@@H](CC)[C@@]23CC(C)CCC2=C(C)[C@H]1O3` (some centres undefined), the inhibition at 500 µM worked out at 28.1%.

The next test deals with Urochloa decumbens. Kind of test: Phytotoxic activity against Urochloa decumbens assessed as weight of aerial parts at 5.0 x 10^-4 mol/l measured 21 days after seed sowing under greenhouse trials (reference value: 22.0 mg).
Details: not given
Type of test: functional.
Take `CCC12OC(C3OOC1O3)C1CCCCC2C1=O` (mixture of isomers): the Activity came out at 5.7 mg.

Consider `CC[C@@H]1C(=O)[C@@H](CC)[C@@]23CC(C)CCC2=C(C)[C@H]1O3` (some centres undefined), for which the Activity worked out at 5.4 mg.

A further test concerns Ipomoea grandifolia. Put plainly: Phytotoxic activity against Ipomoea grandifolia assessed as weight of aerial parts at 5.0 x 10^-4 mol/l measured 21 days after seed sowing under greenhouse trials (reference value: 17.8 mg). Format: functional.
Details: not given
`CCC12OC(C3OOC1O3)C1CCCCC2C1=O` (mixture of isomers): the Activity turned out to be 9.4 mg.

`CC[C@@H]1C(=O)[C@@H](CC)[C@@]23CC(C)CCC2=C(C)[C@H]1O3` (some centres undefined): the Activity is 6.9 mg.

In the next test the test system is Cucumis sativus. Put plainly: Phytotoxic activity against Cucumis sativus (cucumber) assessed as aerial part growth inhibition at 5.0 x 10^-4 mol/l measured 15 days after seed sowing under greenhouse trials (reference value: 0.0%). Type of test: functional. The conditions noted are these: 360 h.
Turning to `CCC12OC(C3OOC1O3)C1CCCCC2C1=O` (mixture of isomers), the inhibition at 500 µM is 48%.

`CC[C@@H]1C(=O)[C@@H](CC)[C@@]23CC(C)CCC2=C(C)[C@H]1O3` (some centres undefined): the inhibition at 500 µM stood at 34.6%.

The next test relates to Sorghum bicolor. Kind of test: Phytotoxic activity against Sorghum bicolor seedlings assessed as germination at 5x10'-4 mol/l at 28 +/-1 degC after 48 hr by acid-washed sand based radicle elongation assay (reference value: 100%).
Details: not given
Type of test: functional.
Consider `CCC12OC(C3OOC1O3)C1CCCCC2C1=O` (mixture of isomers), for which the germination % at 500 µM is 100%.

Turning to `CC[C@@H]1C(=O)[C@@H](CC)[C@@]23CC(C)CCC2=C(C)[C@H]1O3` (some centres undefined), the germination % at 500 µM amounted to 93%.

The test system of the next test is Sorghum bicolor. Kind of test: Phytotoxic activity against Sorghum bicolor assessed as weight of aerial parts at 5.0 x 10^-4 mol/l measured 15 days after seed sowing under greenhouse trials (reference value: 19.0 mg).
Details: not given
Format: functional.
For the compound `CCC12OC(C3OOC1O3)C1CCCCC2C1=O` (mixture of isomers), the Activity came to 10.3 mg.

Take `CC[C@@H]1C(=O)[C@@H](CC)[C@@]23CC(C)CCC2=C(C)[C@H]1O3` (some centres undefined): the Activity amounted to 13.7 mg.

In the next test the test system is Urochloa decumbens. Put plainly: Phytotoxic activity against Urochloa decumbens assessed as weight of root at 5.0 x 10^-4 mol/l measured 21 days after seed sowing under greenhouse trials (reference value: 21.2 mg). Type of test: functional.
Details: not given
For `CCC12OC(C3OOC1O3)C1CCCCC2C1=O` (mixture of isomers), the Activity was 4.6 mg.

With `CC[C@@H]1C(=O)[C@@H](CC)[C@@]23CC(C)CCC2=C(C)[C@H]1O3` (some centres undefined), the Activity was determined as 3.4 mg.

The next test has as its system Cucumis sativus. Kind of test: Phytotoxic activity against Cucumis sativus (cucumber) assessed as root growth inhibition at 5.0 x 10^-4 mol/l measured 15 days after seed sowing under greenhouse trials (reference value: 0.0%). Type of test: functional. The conditions noted are these: 360 h.
Take `CCC12OC(C3OOC1O3)C1CCCCC2C1=O` (mixture of isomers): the inhibition at 500 µM stood at 75.2%.

As to `CC[C@@H]1C(=O)[C@@H](CC)[C@@]23CC(C)CCC2=C(C)[C@H]1O3` (some centres undefined), the inhibition at 500 µM was found to be 79.7%.

Another test deals with Cucumis sativus. Kind of test: Phytotoxic activity against Cucumis sativus (cucumber) seedlings assessed as radicle length at 5x10'-4 mol/l at 28 +/-1 degC after 48 hr by acid-washed sand based radicle elongation assay (reference value: 4.8 cm). Type of test: functional.
Details: not given
Consider `CCC12OC(C3OOC1O3)C1CCCCC2C1=O` (mixture of isomers), for which the Activity turned out to be 2.1 cm.

As to `CC[C@@H]1C(=O)[C@@H](CC)[C@@]23CC(C)CCC2=C(C)[C@H]1O3` (some centres undefined), the Activity is 1.8 cm.

A further test deals with Ipomoea grandifolia. Kind of test: Phytotoxic activity against Ipomoea grandifolia assessed as weight of root at 5.0 x 10^-4 mol/l measured 21 days after seed sowing under greenhouse trials (reference value: 18.4 mg). Type of test: functional.
Details: not given
For `CCC12OC(C3OOC1O3)C1CCCCC2C1=O` (mixture of isomers), the Activity was 9.1 mg.

As to `CC[C@@H]1C(=O)[C@@H](CC)[C@@]23CC(C)CCC2=C(C)[C@H]1O3` (some centres undefined), the Activity was found to be 2.4 mg.

The next test deals with Sorghum bicolor. Put plainly: Phytotoxic activity against Sorghum bicolor assessed as root growth inhibition at 5.0 x 10^-4 mol/l measured 15 days after seed sowing under greenhouse trials (reference value: 0.0%). Type of test: functional. Conditions: 360 h.
For `CCC12OC(C3OOC1O3)C1CCCCC2C1=O` (mixture of isomers), the inhibition at 500 µM was found to be 27.1%.

For `CC[C@@H]1C(=O)[C@@H](CC)[C@@]23CC(C)CCC2=C(C)[C@H]1O3` (some centres undefined), the inhibition at 500 µM was found to be 9.3%.

Another test deals with Cucumis sativus. Put plainly: Phytotoxic activity against Cucumis sativus (cucumber) assessed as weight of roots at 5.0 x 10^-4 mol/l measured 15 days after seed sowing under greenhouse trials (reference value: 31.0 mg).
Details: not given
Type of test: functional.
In the case of `CCC12OC(C3OOC1O3)C1CCCCC2C1=O` (mixture of isomers), the Activity is 7.7 mg.

Regarding `CC[C@@H]1C(=O)[C@@H](CC)[C@@]23CC(C)CCC2=C(C)[C@H]1O3` (some centres undefined), the Activity is given as 6.3 mg.

For the next test, the system named is Cucumis sativus. Put plainly: Phytotoxic activity against Cucumis sativus (cucumber) seedlings assessed as inhibition of radicle growth at 5x10'-4 mol/l at 28 +/-1 degC after 48 hr by acid-washed sand based radicle elongation assay (reference value: 0.0%). Type of test: functional.
Details: not given
In the case of `CCC12OC(C3OOC1O3)C1CCCCC2C1=O` (mixture of isomers), the inhibition at 500 µM was 57.2%.

In the case of `CC[C@@H]1C(=O)[C@@H](CC)[C@@]23CC(C)CCC2=C(C)[C@H]1O3` (some centres undefined), the inhibition at 500 µM came to 62.9%.

The next test relates to Urochloa decumbens. Put plainly: Phytotoxic activity against Urochloa decumbens assessed as aerial part growth inhibition at 5.0 x 10^-4 mol/l measured 21 days after seed sowing under greenhouse trials (reference value: 0.0%). Type of test: functional. The conditions noted are these: 504 h.
Regarding `CCC12OC(C3OOC1O3)C1CCCCC2C1=O` (mixture of isomers), the inhibition at 500 µM was found to be 74.4%.

Take `CC[C@@H]1C(=O)[C@@H](CC)[C@@]23CC(C)CCC2=C(C)[C@H]1O3` (some centres undefined): the inhibition at 500 µM stood at 75.3%.

The next test concerns Sorghum bicolor. Put plainly: Phytotoxic activity against Sorghum bicolor assessed as weight of roots at 5.0 x 10^-4 mol/l measured 15 days after seed sowing under greenhouse trials (reference value: 14.0 mg). Type of test: functional.
Details: not given
With `CCC12OC(C3OOC1O3)C1CCCCC2C1=O` (mixture of isomers), the Activity was 10.2 mg.

Regarding `CC[C@@H]1C(=O)[C@@H](CC)[C@@]23CC(C)CCC2=C(C)[C@H]1O3` (some centres undefined), the Activity came to 12.7 mg.

Another test relates to Urochloa decumbens. Kind of test: Phytotoxic activity against Urochloa decumbens assessed as root growth inhibition at 5.0 x 10^-4 mol/l measured 21 days after seed sowing under greenhouse trials (reference value: 0.0%). Format: functional. Conditions: 504 h.
As to `CCC12OC(C3OOC1O3)C1CCCCC2C1=O` (mixture of isomers), the inhibition at 500 µM came out at 77.9%.

Regarding `CC[C@@H]1C(=O)[C@@H](CC)[C@@]23CC(C)CCC2=C(C)[C@H]1O3` (some centres undefined), the inhibition at 500 µM was determined as 85.5%.

A further test deals with Cucumis sativus. Kind of test: Phytotoxic activity against Cucumis sativus (cucumber) seedlings assessed as germination at 5x10'-4 mol/l at 28 +/-1 degC after 48 hr by acid-washed sand based radicle elongation assay (reference value: 100%).
Details: not given
Type of test: functional.
As to `CCC12OC(C3OOC1O3)C1CCCCC2C1=O` (mixture of isomers), the germination % at 500 µM was 96%.

With `CC[C@@H]1C(=O)[C@@H](CC)[C@@]23CC(C)CCC2=C(C)[C@H]1O3` (some centres undefined), the germination % at 500 µM was found to be 96%.

The test system of the next test is Sorghum bicolor. Kind of test: Phytotoxic activity against Sorghum bicolor seedlings assessed as inhibition of radicle growth at 5x10'-4 mol/l at 28 +/-1 degC after 48 hr by acid-washed sand based radicle elongation assay (reference value: 0.0%). Type of test: functional.
Details: not given
Consider `CCC12OC(C3OOC1O3)C1CCCCC2C1=O` (mixture of isomers), for which the inhibition at 500 µM worked out at 52.5%.

For the compound `CC[C@@H]1C(=O)[C@@H](CC)[C@@]23CC(C)CCC2=C(C)[C@H]1O3` (some centres undefined), the inhibition at 500 µM was 68%.

The record behind these values is ChEMBL document CHEMBL3044807, “Synthesis and biological evaluation of new ozonides with improved plant growth regulatory activity” (2009).
